Measured values as given in patent US11124523B2, “2,6-dioxaspiro [4,5] decane derivatives and preparation method therefor and pharmaceutical applications thereof” (SHANDONG LUYE PHARMACEUTICAL CO., LTD., priority 2017, dated 2021).
Structures can show the parent of a compound that is named as a salt. Where two headings read alike, the source gives them in different places.

Assays:
[1] = molecular target: human μ-subtype opioid receptor (hMOR) (Homo sapiens (Human), UniProt P35372); assay: MOR β-arrestin-2 agonist activity test; format: cell-based; conditions: for Emax: maximum effect of enkephalin DAMGO was 100%, about 0% = no actual agonist activity
Method: Test 2: β-Arrestin-2 Agonist Activity Test
2.1 Experimental Purpose: To test the β-arrestin-2 agonist activity of the compounds of the present disclosure on the human μ-subtype opioid receptor (hMOR).
a. All samples were dissolved in DMSO to a storage concentration of 10 mM.
b. A series of diluted samples were formulated on a 384-well LDV plate. A total of 11 concentration points were obtained by 3.162-fold gradient dilution.
c. The series of diluted samples were transferred to an experimental plate by using an Echo machine, wherein 60 nL of the compound was transferred corresponding to each well.
d. 60 nL of 3.33 mM DAMGO (as HPE) and 60 nL of DMSO (as ZPE) were transferred to the corresponding positions on the experimental plate by using the Echo machine.
The experiment was performed using PathHunter Detection Kit from DiscoveRX Cooperation (DiscoveRX #93-0213C3)
a. Assay buffer and PathHunter detection reagent required for the experiment were formulated.
Assay Buffer: 1×DPBS buffer
PathHunter Detection Reagent: The kit was provided therein with three constituents.
c. The experimental plate was centrifuged at 300 rpm for 30 s and incubated at room temperature for 2 hours.
d. 6 μL of the PathHunter detection reagent was added to each well of the experimental plate.
e. The experimental plate was centrifuged at 300 rpm for 30 seconds, then left at room temperature for 60 minutes, and then read on the Envision.

[2] = Metabolic stability in liver microsomes; format: in vitro ADME; conditions: pH 7.4; human liver microsomes 0.5 mg protein/mL; 45 mg microsome protein/g liver, 20 g liver/kg; read-out: Intrinsic Clearance CLint(liver) in Human Liver
Method: Test 3: Metabolic Stability in Liver Microsomes
3.1 Experimental Purpose: To test the metabolic stability of the compounds of the present disclosure in human liver microsomes
a. All samples as well as testosterone, diclofenac and propafenone acting as reference substances were dissolved in DMSO to a storage concentration of 10 mM.
b. Intermediate Solution: 5 μL of the substance to be tested or the reference substance was diluted with 45 μL of DMSO (with 450 μL of 1:1 methanol/water).
c. Working Solution: the intermediate solution was diluted with 450 μL of 100 mM potassium phosphate buffer solution (pH 7.4).
Assay Buffer: 100 mM potassium phosphate buffer (pH 7.4) • 10 mM MgCl2
Liver Microsome Solution (final concentration: 0.5 mg protein/mL):
Human liver microsomes, obtained from BD, Cat No. 452117, Lot No. 38291
b. 10 μL of the working solution containing the substance to be tested or the reference substance was added to each of plates (T0, T5, T10, T20, T30, T60, NCF60).
c. The liver microsome solution was dispensed into a 96-well plate in an amount of 680 μL/well, then 80 was added, and then T was added to each of the plates. The above incubation plate was placed at 37° C. and pre-incubated for approximately 10 minutes.
d. 10 μL of 100 mM potassium phosphate buffer was added to each well in the NCF60 plate.
e. After the pre-incubation was finished, the NADPH regeneration system working solution was dispensed into the 96-well plate in an amount of 90 μL/well, and then added to each of the plates in an amount of 10 μL/well to start the reaction.
f. The plates were incubated for an appropriate time (e.g., 5, 10, 20, 30, or 60 minutes).
g. The stop solution (refrigerated at 4° C., containing 100 ng/mL Tolbutamide and 100 ng/mL Labetalol) was added to each sample well in an amount of 300 μL/well.
h. The sample plates were shaken well for about 10 minutes and centrifuged at 4,000 rpm for 20 minutes at 4° C. During the centrifugation, 300 μL of HPLC water was added to each well, and 100 μL of the supernatant was taken for LC-MS/MS analysis.
T1/2 and Clint(mic) were calculated by the following formula: […]
Each gram of liver contained 45 mg of microsome protein, and the liver weight was 20 g/kg in a human.
Ct was the concentration at time t, t was the incubation time, C0 was the concentration at time 0, Ke was an elimination rate constant, Clint(mic) was the intrinsic clearance in liver microsomes, and Clint(liver) was the intrinsic clearance in liver. CLint(mic)=0.693/half-life/mg of microsome protein per mL(concentration of microsomes during incubation) CLint(liver)=CLint(mic)×mg of microsome protein/g of liver weight×a ratio of liver weight to body weight 3.4 Test Results

[3] = Pharmacokinetics of the compounds in rats; format: in vivo, rat; conditions: for Apparent Clearance Cl: male SD rats, single IV, mg/Kg: Comparative Compound 1 1.80, (+)-5 2.40, (+)-16 1.76, HCl salt of (+)-23 1.71; for Kp at […] / Vd / AUC(0-inf) / half-life / C0: male, SD, rat, iv; for Kp at […]: brain/plasma, read-out: Brain/Plasm Ratio B/P ratio; for Vd / AUC(0-inf) / half-life / C0: plasma; for Vd: read-out: Apparent Distribution Volume Vd; for AUC(0-inf): read-out: Area under the Curve AUC0-inf; for half-life: read-out: Hal-life T1/2 (converted); for C0: read-out: Initial Concentration C0
Method: 6.1 Experimental Purpose: To measure, using a LC/MS/MS method, the medicament concentrations of the compound in plasma and specific tissues at different time points after the compound was administered by a single intravenous injection (IV) to 7-9-week-old male SD rats used as test animals, to study on the pharmacokinetic behavior of the compound of the present disclosure in rats, and to evaluate the pharmacokinetic characteristics thereof. 6.2 Compound Formulation
Each of them was formulated at a concentration of 1 mg/mL and was used for IV (intravenous injection) administration.
The actual weights of the rats were weighed on the day of administration and volumes to be administered were calculated. The above formulated solutions to be administered were administered by injection into caudal veins of rats.
About 0.2 mL of whole blood samples were collected by means of jugular vein puncture at the time set in the experimental protocol, and the actual blood collection time was recorded in the experimental records. All the blood samples were added to labeled plastic centrifuge tubes to which K2-EDTA anticoagulant was added in advance. After the blood samples were collected, they were centrifuged at 3,000 g for 10 minutes at 4° C. to prepare the supernatant plasma, and the plasma was stored at −20° C. or a lower temperature for LC-MS/MS analysis.
The concentrations of the compounds in rat plasma were measured by using high-performance liquid chromatography-tandem mass spectrometry (LC-MS/MS). The retention durations of the compounds and internal standard, chromatogram acquisition, and integration of chromatograms were processed using the software Analyst (Applied Biosystems), and data statistics were processed using the software Watson LIMS (Thermo Fisher Scientific) or Analyst (Applied Biosystems). The plasma concentration was processed using a non-compartmental model of WinNonlin™ Version 6.3 (Pharsight, Mountain View, Calif.) which was a pharmacokinetic software, and the pharmacokinetic parameters were calculated using a linear logarithmic trapezoidal method.

[4] = published Phase 2 clinical trial data; compared to morphine; cited from earlier work
[5] = >30000 nM = greater than the highest detection concentration, read-out: MOR β-arrestin-2 EC50

Compound | EC50 [1, 5] [µM] | Emax [1] [%] | CLint scaled [2] [mL/min/kg] | Apparent Clearance Cl [3] [mL/min/kg] | Kp at […] [3] | Vd [3] [L/kg] | AUC(0-inf) [3] [µM·h] | half-life [3] [min] | C0 [3] [nM] | EC50 [1] [µM] | side effects, Phase 2 clinical trial (in words) [4]
c1ccc([C@]2(CCNCc3scc4c3CCC4)CCO[C@]3(CCOC3)C2)nc1 [(+)-2] | > 30 | ~0 | 49 | – | – | – | – | – | – | – | –
Fc1ccc([C@]2(CCNCc3cccc(Cl)c3)CCO[C@]3(CCOC3)C2)nc1 [(+)-16] | > 30 | ~0 | 29.2 | 114 | 4.61 | 6.3 | 0.723 | 54 | 979 | – | –
Cc1cccc(CNCC[C@@]2(c3ccc(F)cn3)CCO[C@]3(CCOC3)C2)c1 [Hydrochloride Salt of (+)-22] | – | ~0 | 13.5 | – | – | – | – | – | – | > 30 | –
Fc1ccc([C@]2(CCNCc3cccc(F)c3)CCO[C@]3(CCOC3)C2)nc1 [Hydrochloride Salt of (+)-23] | > 30 | ~0 | 15.6 | 113 | 2.2 | 5 | 0.763 | 42 | 1550 | – | –
COc1ccsc1CNCC[C@@]1(c2ccccn2)CCOC2(CCCC2)C1 [compound 1, Oliceridine, reference compound] | – | 4.5 | 314 | 74.4 | – | 4.3 | 1.15 | 48 | 1900 | – | significant reduction in side effects compared to morphine
